Measured values: patent publication US12661348B2, “Systemic formulation of a pyridinone derivate for TG2-related diseases” (Dr. Falk Pharma GmbH, priority 2020, dated 2026)

Columns and labels:
[1] = tested on: fibrotic liver or kidney diseases in human; assay: Correlation of the anti-fibrotic effect in the animal model with the human pharmacokinetic; format: in vivo; conditions: from fibrotic area versus Cmax or AUC
Experimental: A comparison of the systemic exposure (Cmax, AUC) of (5,E)-methyl-7-(1-(2-(2-ethylbutylamino)-2-oxoethyl)-2-oxo-1,2-dihydro-pyridin-3-ylamino)-6-(1-methyl-1H-imidazole-5-carboxamido)-7-oxohept-2-enoate in dosage effective in the animal experiments with the systemic exposition which is achieved in human allows an estimation of the potential effective dose range.
In addition, the Cmax or AUC being achieved in human by the dosage of 10, 20, and 50 mg compound of formula (I) is shown.

[2] = tested on: STAM-model in the C57BL/6-mouse; assay: Stelic animal model (STAM-model) for non-alcoholic steatohepatitis; format: in vivo
Experimental: The anti-fibrotic effect of compound of formula (I) in the liver was investigated in a STAM-model for non-alcoholic steatohepatitis. This model bases on the induction of a chronical fibrotic inflammation of the liver by means of the combination of a chemical noxin (Streptozotocin) and a fat-containing diet in the C57BL/6-mouse. The pathology is similar to the described NASH in human.
Groups of 8 STAM-mice were treated directly over a time period of two weeks with three different dosages of said compound: 100 mg/kg body weight, 300 mg/kg body weight, and 1000 mg/kg body weight. The daily dosage was administered orally as a suspension in two parts at intervals of 8 hours. In a control group, the STAM-mice were treated in same way but merely with the vehicle methyl cellulose. After the end of the treatment, a measurement of the biochemical parameter in the Plasma and after dissection of the animals a histopathological investigation for the liver, the determination of the fat content of the liver as well as the determination of the expression of inflammation and fibrosis marker was performed.

[3] = Pharmacokinetic in the C57BL/6-mouse; format: in vivo; conditions: oral suspension
Experimental: The study serves to describe the pharmacokinetics of compound of formula (I) in the C57BL/6-mouse. The dosage was analogous to the dosage in the STAM-model (example 3) or in the UUO-model (example 2) in order to ensure the estimation of the systemic exposition in these models and to correlate the pharmacokinetic data with the efficacy data.
Groups of 12 C57BL/6-mice were treated with three different dosages of compound of formula (I) over a time period of 7 days: 100 mg/kg body weight, 300 mg/kg body weight, and 1000 mg/kg body weight. The daily dosage was administered orally as a suspension in two parts at intervals of 8 hours. On day 7 of treatment three different blood samples per animal were collected. The time points in the group were distributed in such a way that the 24 h-profile was covered with in total 12 different time points (3 animals per time point).
The determination of compound of formula (I) in the blood plasma was performed by means of a previously validated HLPC-MS/MS method.

[4] = tested on: STAM-model and UUO-model; assay: Dose-activity-relationship in STAM-model and UUO-model; format: in vivo, C57BL/6-mouse
Text: The reduction of the fibrotic area in the tissue in comparison to the untreated control animals can be considered as a measure for the anti-fibrotic effect of compound of formula (I) in STAM-model as well as in the UUO-model. For the STAM- and UUO-model the anti-fibrotic effect in dependence of the dose or in dependence of the exposure (Plasma Cmax or Plasma-AUC) are depicted in FIG. 5.

[5] = Pharmacokinetic in healthy volunteers, multiple dosing over 7 days; format: in vivo, human; conditions: up to 100 mg
Experimental: The pharmacokinetic of (S,E)-methyl-7-(1-(2-(2-ethylbutylamino)-2-oxoethyl)-2-oxo-1,2-dihydro-pyridin-3-ylamino)-6-(1-methyl-1H-imidazole-5-carboxamido)-7-oxohept-2-enoate (compound of formula (I)) was investigated in healthy volunteers. Cohorts of 18 subjects each were treated with a daily dose of 10, 20, 50 and 100 mg compound of formula (I), respectively over a time period of 7 days. The determination of said compound in blood plasma was performed by means of a previously validated HPLC-MS/MS method.

[6] = Saturation solubility, pH-range 1 to 6.8, HPLC/UV; format: physicochemical; conditions: pH=6.8 (small intestine) compared with pH~1

bioavailability in the mouse model [3]: measurable
systemic exposure in human versus dose [5]: increases linearly
saturation solubility [6]: much lower
Structure (SMILES): CCC(CC)CNC(=O)Cn1cccc(NC(=O)[C@H](CC/C=C/C(=O)OC)NC(=O)c2cncn2C)c1=O [compound of formula (I), (S,E)-methyl-7-(1-(2-(2-ethylbutylamino)-2-oxoethyl)-2-oxo-1,2-dihydro-pyridin-3-ylamino)-6-(1-methyl-1H-imidazole-5-carboxamido)-7-oxohept-2-enoate]
human dosage at which the anti-fibrotic effect shown in the animal model can be achieved [1]: 20 mg
liver histology ([2]; 100, 300, 1000 mg/kg body weight daily, oral suspension in two parts, two weeks): significant, dosage dependent improvement
fibrotic area in the liver ([2]; 100, 300, 1000 mg/kg, significant in the middle and high dosage group): marked, dosage dependent reduction
liver inflammation ([2]; STAM mice): dose-dependent and significant reduction
fat content in the liver ([2]; STAM-mice, oral, two weeks): no influence
reduction of the fibrosis compared with positive control Telmisartan ([2]; high dosage group, comparison with historical data): lay in the area of Telmisartan
NAFLD Activity Score (NAS) ([2]; middle and high dosage group (300, 1000 mg/kg), mainly reduction of inflammation and ballooning): reduced in the middle and high dosage group
anti-fibrotic effect in dependence of the exposure in plasma ([4]; Plasma Cmax or Plasma-AUC): almost linear correlation
anti-fibrotic effect in STAM-model versus UUO-model ([4]; reduction of the fibrotic area versus control, liver and kidney): the same anti-fibrotic effect
